Measurements from patent publication EP4729519A1, “CRYSTAL FORM OF ENPP1 INHIBITOR” (CSPC Zhongqi Pharmaceutical Technology (Shijiazhuang) Co., …, priority 2023, dated 2024).
Like-named read-outs stand apart in the source and are kept apart here.

Key:
[1] = test system: pancreatic cancer Pan02 cells; test: Mouse subcutaneous homograft tumour model of pancreatic cancer Pan02; assay type: in vivo, C57BL/6 mice; conditions: 20 mg/kg oral gavage twice daily
Description: • 1. Experimental Objective: The in vivo efficacy of the test drug in the mouse subcutaneous homograft tumour model of pancreatic cancer Pan02 cells was evaluated. • 2. Experimental Methods • 2.1 Cell Culture Mouse pancreatic cancer Pan02 cells were cultured in monolayer in vitro in DMEM medium supplemented with 10% fetal bovine serum, 0.01 mg/mL sinsulin, 1% penicillin/streptomycin/amphotericin B in an incubator at 37 °C with 5% CO2. When the cell saturation was 80%-90% and the number reached the requirement, the cells were harvested, counted, and inoculated. • 2.2 Animals C57BL/6 mice, female, 6-8 weeks old, weighing 18-22 g. The mice were provided by Shanghai Xipu-Bikai Laboratory Animal Co., Ltd., or other suppliers. • 2.3 Tumour Inoculation and Animal Grouping and administration 0.1 Milliliter of Pan02 cells (5×10^6 cells) were inoculated subcutaneously into the right hind back of each mouse, and animal grouping and administration began when the average tumour volume reached about 100-200 mm^3. Animals were weighed and tumour volumes were measured before administration. Mice were randomly divided into groups based on the tumour volume, with 8 mice in each group. […] Tumor volume was calculated using the formula: V=0.5a×b^2, where a and b represented the long and short diameters of the tumour, respectively. […]

[2] = test system: C57 BL/6 mouse model of myocardial ischemia; test: Mouse myocardial ischemia model (LAD ligation), echocardiography and Masson staining; assay type: in vivo; conditions: mice; for reduction of the degree of fibrosis compared with the vehicle control group: Masson staining; for increase of left ventricular ejection fraction (LVEF) compared with the vehicle control group / increase of left ventricular fractional shortening (FS) compared with the vehicle control group: day 1; for increase of left ventricular ejection fraction (LVEF) / increase of left ventricular fractional shortening (FS): day 7
Description: This study aimed to evaluate the pharmacodynamic effect of the compound of formula (I) in a C57 BL/6 mouse model of myocardial ischemia.
After the animals had acclimated to the facility for one week, they were divided into four groups based on their body weights on the day before surgery, with 6 animals in the sham group (Sham) and 8 animals in the model group (MI). On the next day, the animals underwent myocardial ischemia surgery for modeling (the mice in the Sham group only underwent thoracotomy and threading without ligation). The model was established by ligation of the left anterior descending coronary artery (LAD). After model establishment, the mice were administered penicillin (20,000 units/mouse, i.m.) for 3 days, and disinfected to prevent infection.
Each group of animals was administered the corresponding compounds one hour before surgery. The control group (Vehicle) was administered the vehicle: 5% DMSO+45% PEG400+50% H2O (1% CMC-Na). The experimental groups were administered by oral gavage at doses of 4 mg/kg and 20 mg/kg, respectively, twice daily for 28 consecutive days. The body weights of the animals were monitored daily after administration, and echocardiographic imaging indicators were measured on days 1, 7 and 28. The primary indicators of echocardiographic evaluation were left ventricular fractional shortening (FS) and left ventricular ejection fraction (LVEF). After the echocardiographic measurement on day 28, heart tissues were collected in a tissue fixative for pathological analysis by Masson's trichrome staining.

hENPP1 enzyme = molecular target: T1, hENPP1 enzyme (Homo sapiens, UniProt P22413); test: ENPP1 enzymatic inhibition test in vitro (TMP-pNP hydrolysis, OD405); assay type: biochemical; conditions: TMP-pNP substrate, pH 9.5, 37 °C, 0.5 h
T1 sequence (P22413 1-925): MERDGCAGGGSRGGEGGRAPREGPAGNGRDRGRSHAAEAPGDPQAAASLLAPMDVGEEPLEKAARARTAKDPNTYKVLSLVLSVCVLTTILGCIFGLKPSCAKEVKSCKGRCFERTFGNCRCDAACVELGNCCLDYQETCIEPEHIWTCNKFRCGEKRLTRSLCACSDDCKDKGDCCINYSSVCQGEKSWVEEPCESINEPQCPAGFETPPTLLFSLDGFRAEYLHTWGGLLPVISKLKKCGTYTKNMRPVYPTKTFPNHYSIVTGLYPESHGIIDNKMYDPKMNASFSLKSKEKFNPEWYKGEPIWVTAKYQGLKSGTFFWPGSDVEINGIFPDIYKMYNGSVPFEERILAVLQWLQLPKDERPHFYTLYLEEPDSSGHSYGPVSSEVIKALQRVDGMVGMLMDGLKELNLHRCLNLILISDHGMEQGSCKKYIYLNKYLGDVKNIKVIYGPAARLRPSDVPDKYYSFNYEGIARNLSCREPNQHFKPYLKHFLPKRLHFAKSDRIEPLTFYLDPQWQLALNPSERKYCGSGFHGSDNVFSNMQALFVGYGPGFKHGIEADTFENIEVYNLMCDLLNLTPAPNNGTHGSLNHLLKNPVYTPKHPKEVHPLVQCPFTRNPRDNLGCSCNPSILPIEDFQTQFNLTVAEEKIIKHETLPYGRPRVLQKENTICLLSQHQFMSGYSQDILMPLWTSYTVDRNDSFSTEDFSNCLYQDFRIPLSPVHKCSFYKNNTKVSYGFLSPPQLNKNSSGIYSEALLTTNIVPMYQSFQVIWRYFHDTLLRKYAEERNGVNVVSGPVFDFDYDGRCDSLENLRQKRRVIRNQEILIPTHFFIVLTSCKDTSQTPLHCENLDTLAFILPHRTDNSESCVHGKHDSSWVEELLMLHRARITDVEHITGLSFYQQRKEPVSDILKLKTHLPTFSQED
Description: ENPP1 is a transmembrane glycoprotein capable of hydrolyzing nucleotides and derivatives with nucleotide-5'-monophosphate structures. ENPP1 is capable of hydrolyzing artificially synthesized 5'-p-nitrophenyl monophosphate (TMP-pNP) into nucleotide 5'-monophosphate and p-nitrophenol, while p-nitrophenol is a chromogenic product. The production amount of p-nitrophenol product can be directly measured by its absorbance at 405 nm, which is directly proportional to the enzyme activity.
100X serial gradient dilutions of compound were prepared with DMSO, starting from a stock concentration of 1 mM, and using a 4-fold serial gradient dilution to make 10 concentration points. 300 Nanoliter of compounds at gradient concentrations were transferred to a 384-well assay plate (final concentration: starting at 10 µM, 4-fold serial gradient dilution, 10 concentration points) by using Echo. First, 15 µL of 0.2 ng/uL hENPP1 enzyme (2× final concentration) prepared in an assay buffer (250 mM NaCl, 50 mM Tris, pH = 9.5) was added to each well. […] After incubation at 37 °C for 0.5 h, the OD405 nm value was read by the microplate reader. The percentage of inhibition rate was calculated using the formula: %Inhibition Rate=(ODhigh signal control - ODsample well) / (ODhigh signal control - ODlow signal control)*100. The IC50 value was calculated using four-parameter fitting. […]

[3] = test system: SD rat model of myocardial ischemia; test: Rat myocardial ischemia model (LAD ligation), echocardiography and Masson staining; assay type: in vivo; conditions: rats; for reduction of the degree of fibrosis compared with the vehicle control group: Masson staining
Description: This study aimed to evaluate the pharmacodynamic effect of the compound of formula (I) in a SD rat model of myocardial ischemia.
After the animals had acclimated to the facility for one week, the model was established by ligation of the left anterior descending coronary artery (LAD). After model establishment, the rats were administered penicillin (80,000 units/rat, i.m.) for 3 days, and disinfected to prevent infection.
One day after model establishment, the modeled animals were randomly divided into 4 groups according to the baseline body weight and echocardiographic imaging indicators, with 4 animals in each sham group (Sham) and 6 animals in each myocardial infarction model group (MI), and drug administration was then initiated. The control group was given the blank vehicle: 5% DMSO + 45% PEG400 + 50% H2O (1% CMC-Na). The experimental groups were administered by oral gavage at doses of 30 mg/kg and 75 mg/kg, respectively, twice daily for 28 consecutive days. The body weights of the animals were monitored daily after administration, and echocardiographic imaging indicators were measured on days 7 and 28. The primary indicators of echocardiographic evaluation were left ventricular fractional shortening (FS) and left ventricular ejection fraction (LVEF). After the echocardiographic measurement on day 28, heart tissues were collected in a tissue fixative for pathological analysis by Masson's trichrome staining.

[4] = Pharmacokinetic test in mice, plasma concentration by LC-MS/MS; assay type: in vivo, CD-1 male mice; conditions: male, CD-1, mouse; for AUC(0-t): read-out: AUC0-24h
[5] = 30mpk oral gavage twice daily, 7th day
[6] = 30mpk oral gavage twice daily, day 28
[7] = 75mpk oral gavage twice daily, 7th day
[8] = 75mpk oral gavage twice daily, day 28

IC50 (hENPP1 enzyme): 0.05 nM | clearance ([4]; 2 mg/kg, IV, 2mpk): 3.2 mL/min/kg | half-life ([4]; 2 mg/kg, IV, 2mpk): 321 min | AUC(0-t) ([4]; 2 mg/kg, IV, 2mpk): 10000 ng·h/mL | Vd ([4]; 2 mg/kg, IV, 2mpk, read-out: Vss): 1.08 L/kg | Cmax ([4]; 10 mg/kg, PO, 10mpk): 8080 ng/mL | Tmax ([4]; 10 mg/kg, PO, 10mpk): 2 h | half-life ([4]; 10 mg/kg, PO, 10mpk): 210 min | AUC(0-t) ([4]; 10 mg/kg, PO, 10mpk): 47800 ng·h/mL
SMILES: COc1ccc2c3c(cnc2n1)COC(=O)N3Cc1c(F)cc(S(N)(=O)=O)cc1F [Compound of Formula (I), 3,5-difluoro-4-((8-methoxy-2-oxo-2H-[1,3]oxazino[5,4-c][1,8]naphthyridin-1(4H)-yl)methyl)benzenesulfonamide]
effect on the body weight of the mice ([1]; 16 days): no inhibitory effect on the body weight | TGI ([1]; after administration for 16 days, p<0.05 vs control group): 43.4% | reduction of the degree of fibrosis compared with the vehicle control group ([2]; 4 mg/kg twice daily, 28 days): 8.8% | reduction of the degree of fibrosis compared with the vehicle control group ([2]; 20 mg/kg twice daily, 28 days): 9.6% | effect on body weight ([2]; 4 and 20 mg/kg twice daily, 28 days): without any significant effect on body weight | increase of left ventricular ejection fraction (LVEF) compared with the vehicle control group ([2]; 4 mpk oral gavage twice daily): 15% | increase of left ventricular fractional shortening (FS) compared with the vehicle control group ([2]; 4 mpk oral gavage twice daily): 7% | increase of left ventricular ejection fraction (LVEF) ([2]; 4 mpk oral gavage twice daily): 23.4% | increase of left ventricular fractional shortening (FS) ([2]; 4 mpk oral gavage twice daily): 12.2% | increase of left ventricular ejection fraction (LVEF) compared with the vehicle control group ([2]; 20 mpk oral gavage twice daily): 10% | increase of left ventricular fractional shortening (FS) compared with the vehicle control group ([2]; 20 mpk oral gavage twice daily): 5% | increase of left ventricular ejection fraction (LVEF) ([2]; 20 mpk oral gavage twice daily): 23.3% | increase of left ventricular fractional shortening (FS) ([2]; 20 mpk oral gavage twice daily): 12.3% | LVEF and FS in the left ventricle ([2]; day 28, vehicle control group further deteriorated): further maintained the LVEF and FS | reduction of the degree of fibrosis compared with the vehicle control group ([3]; 30 mg/kg twice daily, 28 days): 5.2% | reduction of the degree of fibrosis compared with the vehicle control group ([3]; 75 mg/kg twice daily, 28 days): 6.5% | effect on body weight ([3]; 30 and 75 mg/kg twice daily, 28 days): no significant effect on body weight | increase of LVEF [3, 5]: 11.43% | increase of left ventricular fractional shortening (FS) [3, 5]: 9.73% | increase of LVEF [3, 6]: 18.75% | increase of left ventricular fractional shortening (FS) [3, 6]: 13.01% | increase of LVEF [3, 7]: 18.85% | increase of left ventricular fractional shortening (FS) [3, 7]: 12.62% | increase of LVEF [3, 8]: 23.8% | increase of left ventricular fractional shortening (FS) [3, 8]: 15.88%
